IC50 and inhibition data for 19 compounds are collected here from patent US20230058189A1, “QUINOLIN-4-ONE AND 4(1H)-CINNOLINONE COMPOUNDS AND METHODS OF USING SAME” (Frequency Therapeutics, Inc., priority 2019, published 2023).

Holding throughout (assay type): biochemical
Test [1] deals with GSK3α (Homo sapiens, UniProt P49840). Put plainly: GSK3α in vitro enzymatic assay (Kinase-Glo Max luminescence). The note with it: recombinant human GSK3, 10 μM ATP; approximate values; read-out: Potency GSK3alpha. The protocol: (§1) Enzymatic activities of compounds of the present disclosure can be tested using recombinant human GSK3 in an in vitro enzymatic assay to determine the ability of the compounds of the present disclosure to inhibit GSK3α and GSK3β.
(§2) The assay was performed using Kinase-Glo® Max luminescence kinase assay kit (Promega). The assay measures kinase activity by quantitating the amount of ATP remaining in solution following a kinase reaction. The luminescent signal from the assay is correlated with the amount of ATP present and is inversely correlated with the amount of kinase activity.
(§3) To perform the assay, compounds were diluted in 10% DMSO and 5 μl of the dilution was added to a 50 μl reaction so that the final concentration of DMSO was 1% in all of reactions. The enzymatic reactions were conducted at 30° C. for 40 minutes. The 50 μl reaction mixture contained 40 mM Tris, pH 7.4, 10 mM MgCl2, 0.1 mg/ml BSA, 2 mM DTT, 0.1 mg/ml GSK tide substrate, 10 uM ATP and GSK3. After the enzymatic reaction, 50 μl of Kinase-Glo Max Luminescence kinase assay solution (Promega) was added to each reaction and plates were incubated for 15 minutes at room temperature. Luminescence signal was measured using a BioTek Synergy 2 microplate reader.
(§4) Kinase activity assays were performed in duplicate at each concentration. The luminescence data were analyzed using the computer software, GraphPad Prism. The difference between luminescence intensities in the absence of Kinase (Lut) and in the presence of Kinase (Luc) was defined as 100% activity (Lut-Luc). Using luminescence signal (Lu) in the presence of the compound, percent activity was calculated as: % activity={(Lut-Lu)/(Lut-Luc)}×100%, where Lu=the luminescence intensity in the presence of the compound (all percent activities below zero were shown zero in the table).
(§5) The values of percent activity versus a series of compound concentrations were then plotted using non-linear regression analysis of Sigmoidal dose-response curve generated with the equation Y=B+(T−B)/1+10((LogEC50−X)×Hill Slope), where Y=percent activity, B=minimum percent activity, T=maximum percent activity, X=logarithm of compound and Hill Slope=slope factor or Hill coefficient. The ICs, value was determined by the concentration causing a half-maximal percent activity.

Test [2] addresses GSK3β (Homo sapiens, UniProt P49841). Put plainly: GSK3β in vitro enzymatic assay (Kinase-Glo Max luminescence). The note with it: recombinant human GSK3, 10 μM ATP; approximate values; read-out: Potency GSK3beta. The protocol:
as §1, §2, §3, §4, §5
On the technique in general: Kinase-Glo measures the ATP left after a reaction by luminescence.

Test [3] deals with T1, LSD2 (Homo sapiens, UniProt Q8NB78).
T1 sequence (Q8NB78 1-822): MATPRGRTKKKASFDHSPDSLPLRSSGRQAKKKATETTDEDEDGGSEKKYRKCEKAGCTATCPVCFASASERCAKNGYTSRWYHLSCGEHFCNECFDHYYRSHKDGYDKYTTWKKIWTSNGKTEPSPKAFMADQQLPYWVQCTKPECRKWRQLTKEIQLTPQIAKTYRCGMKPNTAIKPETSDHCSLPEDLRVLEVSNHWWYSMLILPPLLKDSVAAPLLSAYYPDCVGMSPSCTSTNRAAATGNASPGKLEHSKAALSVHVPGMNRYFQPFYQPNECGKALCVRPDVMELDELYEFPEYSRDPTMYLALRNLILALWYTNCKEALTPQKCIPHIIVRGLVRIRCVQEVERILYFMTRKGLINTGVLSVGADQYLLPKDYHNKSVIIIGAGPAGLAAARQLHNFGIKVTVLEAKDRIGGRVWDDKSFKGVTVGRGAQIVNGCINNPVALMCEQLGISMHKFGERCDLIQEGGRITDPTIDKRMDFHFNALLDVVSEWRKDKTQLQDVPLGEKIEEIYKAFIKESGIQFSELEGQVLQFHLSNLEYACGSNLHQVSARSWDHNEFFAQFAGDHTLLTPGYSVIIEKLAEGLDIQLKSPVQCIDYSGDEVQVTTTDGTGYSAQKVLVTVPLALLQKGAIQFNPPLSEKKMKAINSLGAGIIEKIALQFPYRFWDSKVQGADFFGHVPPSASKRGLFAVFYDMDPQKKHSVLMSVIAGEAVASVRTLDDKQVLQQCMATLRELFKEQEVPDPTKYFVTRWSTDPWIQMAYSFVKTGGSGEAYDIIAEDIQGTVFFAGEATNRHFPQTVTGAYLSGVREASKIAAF
Put plainly: LSD2 A-screen (AlphaScreen) demethylase enzymatic assay. The note with it: approximate values; for inhibition at 50 µM: 50 μM compound, read-out: Potency LSD-2 % Inhibition at 50 μM. How it is done: (§6) Enzymatic activities of compounds of the present disclosure can be tested with recombinant human LSD using an in vitro enzymatic assay to determine the ability of the compounds of the present disclosure to inhibit LSD-1 and LSD2. Examples of the assay are provided below.
(§7) All of the enzymatic reactions were conducted in duplicate at room temperature for 60 minutes in a 10 μL mixture containing assay buffer, histone H3 peptide substrate, demthylase enzyme, and the test compound. These 10 μL reactions were carried out in wells of a 384-well Optiplate (PerkinElmer). The dilution of the compounds was first performed in 100% DMSO with the highest concentration at 5 mM Each intermediate compound dilution (in 100% DMSO) was then directly diluted 30× fold into assay buffer for 3.3× concentration (DMSO). […] From this intermediate step, 3 μL of compound was added to 4 μL of demethylase enzyme dilution was incubated for 30 minutes at room temperature. After this incubation, 3 μL of peptide substrate was added. The final DMSO concentration was 1%. After enzymatic reactions, 5 μL of anti-Mouse or anti-Rabbit Acceptor beads (PerkinElmer, diluted 1:500 with 1× detection buffer) and […] (BPS, diluted 1:800 with 1× detection buffer) were added to the reaction mix. After brief shaking, the plate was incubated for 30 minutes. Finally, 10 μL of AlphaScreen™ Streptavidin-conjugated donor beads (Perkin, diluted 1:125 with 1× detection buffer) were added. After 30 minutes, the samples were measured in an AlphaScreen microplate reader (EnSpire Alpha 2390 Multilabel Reader, Perkin Elmer).
(§8) Enzyme activity assays were performed in duplicates at each concentration. The A-screen intensity data were analyzed and compared. In the absence of the compound, the intensity in each data set was defined as 100% (Ce) activity. In the absence of enzyme, the intensity in each data set was defined as 0% (C0) activity. The percent activity in the presence of each compound was calculated according to the following equation: % activity=(C−C0)/(Ce−C0), where C=the intensity in the presence of the compound.
(§9) The value of percent activity versus a series of compound concentrations was then plotted using non-linear regression analysis of Sigmoidal dose-response curve generated with the equation Y=B+(T−B)/1+10((LogEC50−X)×Hill Slope), where Y=percent activity, B=minimum percent activity, T=maximum percent activity, X=logarithm of compound and Hill Slope=slope factor or Hill coefficient. The IC50 value was determined by the concentration causing a half-maximal percent activity.
On the technique in general: Alpha assays give light when donor and acceptor beads are brought close together.

For test [4], the target named is LSD-1 (Homo sapiens, UniProt O60341). The experiment in a line: LSD-1 A-screen (AlphaScreen) demethylase enzymatic assay. The note with it: approximate values; for inhibition at 50 µM: 50 μM compound, read-out: Potency LSD-1 % Inhibition at 50 μM; for IC50: read-out: Potency LSD-1 IC50. How it is done:
as §6, §7, §8, §9

Sequence of GSK3β (P49841 whole entry): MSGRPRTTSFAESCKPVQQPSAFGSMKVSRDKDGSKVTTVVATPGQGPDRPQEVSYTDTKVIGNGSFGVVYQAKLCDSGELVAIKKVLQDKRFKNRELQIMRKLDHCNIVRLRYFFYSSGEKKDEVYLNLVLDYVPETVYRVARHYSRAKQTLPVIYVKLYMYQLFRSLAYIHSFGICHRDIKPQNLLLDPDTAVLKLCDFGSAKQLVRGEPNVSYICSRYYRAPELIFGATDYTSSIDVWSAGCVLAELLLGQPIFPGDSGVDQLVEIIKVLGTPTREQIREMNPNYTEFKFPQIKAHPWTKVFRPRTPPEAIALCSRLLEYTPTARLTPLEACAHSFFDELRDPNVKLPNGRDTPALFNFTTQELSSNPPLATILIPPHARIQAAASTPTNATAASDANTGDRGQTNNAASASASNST
Sequence of GSK3α (P49840 whole entry): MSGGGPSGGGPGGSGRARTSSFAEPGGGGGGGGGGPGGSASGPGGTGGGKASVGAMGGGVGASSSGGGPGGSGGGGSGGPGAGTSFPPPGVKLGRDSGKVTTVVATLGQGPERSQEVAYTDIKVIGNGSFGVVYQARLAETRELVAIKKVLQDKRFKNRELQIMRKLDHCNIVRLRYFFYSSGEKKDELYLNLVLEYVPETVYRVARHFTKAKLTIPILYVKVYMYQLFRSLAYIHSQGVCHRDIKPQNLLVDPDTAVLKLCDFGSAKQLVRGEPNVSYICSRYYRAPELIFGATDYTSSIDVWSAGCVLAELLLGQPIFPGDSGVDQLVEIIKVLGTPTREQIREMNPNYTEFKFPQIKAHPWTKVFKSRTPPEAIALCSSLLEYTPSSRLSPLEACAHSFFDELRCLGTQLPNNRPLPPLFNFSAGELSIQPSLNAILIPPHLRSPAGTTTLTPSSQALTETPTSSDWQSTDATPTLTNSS

With `CCn1cc(C(=O)O)c(=O)c2c(N)c(F)c(NC3CCCCC3)cc21` [Compound I-7], the IC50 is 38 nM in test [1] and 18 nM in test [2]. Moreover, the values for the inhibition at 50 µM in test [3] and in test [4] were 5% and 10%, respectively.
In the case of `CCn1cc(C(=O)O)c(=O)c2c(N)c(F)c(Nc3ccccc3)cc21` [Compound I-16], the IC50 in test [1] was 107 nM; in test [2], 68 nM. In addition, the inhibition (commonly the drop in the measured response relative to a control, in per cent) at 50 µM in test [3] is 5%; in test [4] it was 32%.
With `CCn1cc(C(=O)O)c(=O)c2c(N)c(F)c(N[C@H]3C[C@@H]3c3ccccc3)cc21` [Compound I-22], the IC50 was 137 nM in test [1] and 115 nM in test [2]. The figures for the inhibition at 50 µM in test [3] and in test [4] were 2% and 11%, respectively.
As to `CCn1cc(C(=O)O)c(=O)c2c(N)c(F)c(N[C@@H]3CC[C@H]3c3ccccc3)cc21` (relative stereo) [Compound I-13], the IC50 in test [1] was 628 nM; in test [2] it was 555 nM. In addition, the inhibition at 50 µM in test [3] was determined as 18%; in test [4], 26%.
In the case of `CC(C)n1cc(C(=O)O)c(=O)c2c(N)c(F)c(N[C@]3(C)C[C@@H](N[C@@H]4C[C@H]4c4ccccc4)C3)cc21` (relative stereo) [Compound I-93], the IC50 in test [1] is 3950 nM; in test [2], 6540 nM. The inhibition at 50 µM in test [3] is 2%; in test [4] it was 3%.
For the compound `CCn1cc(C(=O)O)c(=O)c2c(N)c(F)c(NCCCc3ccccc3)cc21` [Compound I-19], the IC50 is 19 nM in test [1] and 29 nM in test [2]. In addition, the inhibition at 50 µM in test [3] was found to be 17%; in test [4], 27%.
As for `CCn1cc(C(=O)O)c(=O)c2c(N)c(F)c(NC3CCC3)cc21` [Compound I-12], the IC50 in test [1] came to 82 nM; in test [2], 55 nM. The inhibition at 50 µM in test [3] was determined as 0%; in test [4] it was 36%.
For the compound `CCn1cc(C(=O)O)c(=O)c2c(N)c(F)c(N(C)CCN[C@H]3C[C@@H]3c3ccccc3)cc21` (relative stereo) [Compound I-50], the values for the IC50 in test [1], in test [2] and in test [4] were above 10000 nM, above 10000 nM and 5500 nM, respectively. For the same compound, the inhibition at 50 µM in test [3] was determined as 50%.
On to `CCn1cc(C#N)c(=O)c2c(N)c(F)c(N[C@@H]3C[C@H]3c3ccccc3)cc21` (relative stereo) [Compound I-38], for which the IC50 came out at 6.3 nM in test [1] and 2.5 nM in test [2]. Besides, the inhibition at 50 µM in test [3] was found to be 0%; in test [4] it was 15%.
As to `CCn1cc(C(N)=O)c(=O)c2c(N)c(F)c(NCCN[C@H]3C[C@@H]3c3ccccc3)cc21` (relative stereo) [Compound I-83], the IC50 in test [1] is 3.3 nM; in test [2], 3.4 nM; in test [3] (read-out: Potency LSD-2 IC50), above 100000 nM; in test [4], 230 nM.
Take `CCn1cc(C(=O)O)c(=O)c2c(N)c(F)c(NC3CN(c4ccccc4)C3)cc21` [Compound I-69]: the IC50 stood at 61 nM in test [1] and 52 nM in test [2]. In addition, the inhibition at 50 µM is 3% in test [3] and 17% in test [4].
The like results for `CCn1cc(C#N)c(=O)c2c(N)c(F)c(NCCc3ccccc3)cc21` [Compound I-67] were, in that order, 2 nM, 1.9 nM, 4% and 8%.
On to `CCn1cc(C(=O)O)c(=O)c2c(N)c(F)c(NC3CCOCC3)cc21` [Compound I-8], for which the values for the IC50 in test [1] and in test [2] were 713 nM and 452 nM, respectively. The inhibition at 50 µM is 1% in test [3] and 10% in test [4].
Take `CCCn1cc(C(=O)O)c(=O)c2c(N)c(F)c(NCCN[C@@H]3C[C@H]3c3ccccc3)cc21` (relative stereo) [Compound I-87]: the values for the IC50 in test [1], in test [2] and in test [4] were 114 nM, 157 nM and 3300 nM, respectively. Besides, the inhibition at 50 µM in test [3] worked out at 15%.
Take `CCn1cc(C(=O)O)c(=O)c2c(N)cc(N[C@@H]3C[C@H]3c3ccccc3)cc21` (relative stereo) [Compound I-59]: the IC50 in test [1] turned out to be 4680 nM; in test [2], 4430 nM. For the same compound, the inhibition at 50 µM in test [3] came to 24%; in test [4] it was 11%.
With `CCn1cc(C(N)=O)c(=O)c2c(N)c(F)c(NCCc3ccccc3)cc21` [Compound I-66], the IC50 in test [1] amounted to 2.6 nM; in test [2], 2.5 nM. Further, the inhibition at 50 µM in test [3] stood at 4%; in test [4], 6%.
With `CCn1cc(C(=O)O)c(=O)c2c(N)c(F)c(N[C@@H]3C[C@@H]3c3ccccc3)cc21` (relative stereo) [Compound I-23], the IC50 in test [1] was 221 nM; in test [2], 770 nM. The inhibition at 50 µM was 16% in test [3] and 26% in test [4].
In the case of `CCn1cc(C(=O)O)c(=O)c2c(N)c(F)c(N[C@H]3CC[C@@H](N[C@@H]4C[C@H]4c4ccccc4)CC3)cc21` (relative stereo) [Compound I-28], the values for the IC50 in test [1], in test [2] and in test [4] were 451 nM, 691 nM and 1300 nM, respectively. In addition, the inhibition at 50 µM in test [3] stood at 65%.
Take `Nc1c(F)c(N[C@@H]2C[C@H]2c2ccccc2)c(F)c2c1c(=O)c(C(=O)O)cn2C1CC1` (relative stereo) [Compound I-32]: the IC50 was found to be 1600 nM in test [1] and 2100 nM in test [2]. The inhibition at 50 µM amounted to 36% in test [3] and 40% in test [4].
